Read-outs that look alike come from different tables or passages of the source.
Experiments:
sGC = biological target: T1, sGC (Homo sapiens, UniProt Q02108+Q02153); experiment: sGC whole cell assay (HEK-293, cGMP production); assay type: cell-based
T1 construct: HEK-293 cells endogenously expressing sGC were treated with olinciguat; host or cells: HEK-293
T1 sequence (Q02153 1-619): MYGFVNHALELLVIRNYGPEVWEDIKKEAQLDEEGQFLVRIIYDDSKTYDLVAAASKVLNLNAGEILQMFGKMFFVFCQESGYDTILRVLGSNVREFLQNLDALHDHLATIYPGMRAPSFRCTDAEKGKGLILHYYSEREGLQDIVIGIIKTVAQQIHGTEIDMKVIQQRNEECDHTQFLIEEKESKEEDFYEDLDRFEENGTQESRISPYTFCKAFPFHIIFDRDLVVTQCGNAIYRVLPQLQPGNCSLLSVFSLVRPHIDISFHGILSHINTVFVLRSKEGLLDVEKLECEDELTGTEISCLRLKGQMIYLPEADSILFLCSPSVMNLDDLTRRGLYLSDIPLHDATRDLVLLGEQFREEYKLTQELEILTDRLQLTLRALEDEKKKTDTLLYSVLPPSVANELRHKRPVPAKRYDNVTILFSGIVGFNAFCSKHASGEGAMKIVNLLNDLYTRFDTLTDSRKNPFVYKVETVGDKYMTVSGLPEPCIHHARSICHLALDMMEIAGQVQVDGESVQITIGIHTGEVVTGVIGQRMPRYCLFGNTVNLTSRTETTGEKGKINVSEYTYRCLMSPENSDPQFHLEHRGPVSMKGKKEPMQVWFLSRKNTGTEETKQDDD
T1 sequence (Q02108 1-690): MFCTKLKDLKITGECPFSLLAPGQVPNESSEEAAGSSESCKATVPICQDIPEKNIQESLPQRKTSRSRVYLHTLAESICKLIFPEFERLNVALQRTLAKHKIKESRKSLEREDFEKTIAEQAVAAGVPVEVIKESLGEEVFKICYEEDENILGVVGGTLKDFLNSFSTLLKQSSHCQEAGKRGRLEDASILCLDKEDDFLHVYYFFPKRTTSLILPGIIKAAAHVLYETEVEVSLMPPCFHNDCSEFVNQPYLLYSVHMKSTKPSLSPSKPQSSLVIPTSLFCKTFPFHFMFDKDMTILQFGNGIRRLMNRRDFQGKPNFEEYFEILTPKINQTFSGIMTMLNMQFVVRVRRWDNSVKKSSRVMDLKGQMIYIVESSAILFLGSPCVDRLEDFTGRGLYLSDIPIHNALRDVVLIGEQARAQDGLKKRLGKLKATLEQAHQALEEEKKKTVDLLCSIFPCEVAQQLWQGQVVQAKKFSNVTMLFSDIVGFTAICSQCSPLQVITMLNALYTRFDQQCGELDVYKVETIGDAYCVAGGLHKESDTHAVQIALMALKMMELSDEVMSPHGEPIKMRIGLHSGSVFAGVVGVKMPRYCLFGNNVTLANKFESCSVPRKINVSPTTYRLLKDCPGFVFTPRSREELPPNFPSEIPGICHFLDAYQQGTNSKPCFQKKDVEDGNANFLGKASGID
Method: The human embryonic kidney (HEK)-293 whole cell assay was performed as described ([Tobin et al., 2018]). Briefly, HEK-293 cells (ATCC, Manassas, VA, #CRL-1573) were maintained in Dulbecco's modified Eagle's medium (DMEM) containing serum and antibiotics. Assays were performed in 384-well plates at 37°C by preincubating with 0.5 mM 3-isobutyl-1-methylxanthine (IBMX) in Hanks' Balanced Salt Solution (HBSS) containing calcium and magnesium for 15 min, then adding olinciguat with or without the NO donor diethylenetriamine NONOate (DETA), followed by a 20-min incubation. Cells were lysed with ice-cold 10% acetic acid then centrifuged, and cGMP levels in supernatants were determined by reverse-phase liquid chromatography with tandem mass spectrometry (LC-MS/MS). Concentration-response data were fit using a four-parameter fit (log(agonist) vs response – variable slope) using GraphPad Prism v.7.

[1] = tested on: vascular smooth muscle cells (VSMC) from rat aorta; experiment: Rat aorta vascular smooth muscle cell proliferation (3H-thymidine incorporation); assay type: cell-based; details: Rattus norvegicus, VSMC
Method: We explored the concentration response of olinciguat, tadalafil, and olinciguat in the presence of 1 μM tadalafil on rat aorta vascular smooth muscle proliferation, Tadalafil was used because it is a once-daily PDE5 inhibitor that, like the three-times-daily PDE5 inhibitor sildenafil, is approved for treatment of PAH and ED. Vascular smooth muscle cells (VSMC) from rat aorta (Lonza, R-ASM-580) were plated into a 96-well plate at 15,000 cells per well in DMEM:F12 containing 20% FBS and GA-1000 ([Gentamicin, Amphotericin B], Lonza, CC-40863) for 24 h at 37°C. Medium was removed and cells were washed once with 100 μl DMEM:F12 before adding 100 μl of DMEM:F12 and incubating for 24 h to induce quiescence. Cells were then cultured for 24 h in DMEM:F12 supplemented with 5% FBS, in the presence of test articles (vehicle, olinciguat, tadalafil) with 10 µM DETA. In the last 6 h, 0.2 μCi of ^3H-thymidine (American Radiolabeled Chemicals, ART 0178A) was added to each well to measure DNA synthesis by thymidine incorporation. Cells were washed once with HBSS and then trypsinized and transferred into FB filter plates (Millipore, MADVNOB). A rapid-filtration technique using a filtration apparatus (Millipore, MAVM0960R) with vacuum aspiration was used to harvest and rinse labeled cells (6× with 0.2 ml of chilled water). The radioactivity bound to the filters was counted with 80 µl of liquid scintillant (PerkinElmer, UltraGold MV, 6013159) in a scintillation counter (Perkin Elmer Microbeta instrument).
In the vascular smooth muscle cell proliferation experiment, a comparison between the IC50's for olinciguat alone vs oliniciguat in the presence of 1 µM tadalafil was performed by a two-tailed t-test using Log EC50 best fit values and SEs determined from a four-parameter nonlinear curve fit, assuming n=60 degrees of freedom.

[2] = Plasma protein binding (equilibrium dialysis), rat; assay type: in vitro ADME; details: both sexes, Sprague Dawley, 1 and 10 μM, equilibrium dialysis 18 h, no gender difference, read-out: bound to plasma proteins
Method: Concentrated (10 mM) DMSO stock solutions of olinciguat were diluted to 1 and 10 μM in 2.5 ml of rat (male and female Sprague Dawley) and human plasma. Concentrated [^14C]-labeled olinciguat (1 μl,1 mCi/ml stock concentration) was spiked into each sample and mixed by vortexing. Triplicate 500 μl aliquots of plasma containing [^14C]-labeled olinciguat were transferred to a Rapid Equilibrium Dialysis system and dialyzed (molecular weight cut-off ~8000 Da) against 500 μl of phosphate-buffered saline (PBS) at room temperature for 18 h. Radioactivity of [^14C]-labeled olinciguat in PBS and plasma samples was measured using liquid scintillation counting.

## NC(=O)[C@](O)(CNc1nc(-c2cc(-c3ccon3)n(Cc3ccccc3F)n2)ncc1F)C(F)(F)F [olinciguat, (R)-3,3,3-trifluoro-2-(((5-fluoro-2-(1-(2-fluorobenzyl)-5-(isoxazol-3-yl)-1H-pyrazol-3-yl)pyrimidin-4-yl)amino)methyl)-2-hydroxypropanamide]
sGC; HEK-293 cells endogenously expressing sGC, in the presence of 10 µM DETA, geometric mean of 14 experiments, 95% CI 42.7 to 105 nM, read-out: EC50, cGMP production
  EC50: 73.8 nM
sGC; Table 2 summary, 10 µM DETA, read-out: Human cellular sGC assay (HEK-293) EC50, olinciguat concentration (range = 95% CI)
  EC50: 42.7 to 105 nM
[1]; 5% FBS, 10 µM DETA, 3H-thymidine incorporation, 95% CI 22.4 to 39 nM, read-out: IC50, VSMC proliferation, olinciguat alone
  IC50: 29.6 nM
[1]; Table 2 summary, olinciguat alone, read-out: Rat vascular smooth muscle proliferation EC50, olinciguat concentration (range = 95% CI)
  EC50: 22.4 to 39 nM
[2]
  fraction unbound at 18 h: 0.01

From publication PMC7156612, “Olinciguat, an Oral sGC Stimulator, Exhibits Diverse Pharmacology Across Preclinical Models of Cardiovascular, Metabolic, Renal, and Inflammatory Disease” (Frontiers in Pharmacology, 2020)
